Data as given in patent publication EP4768018A1, “TOPICAL GEL FOR JAK INHIBITOR AND USE THEREOF” (Prime Gene Therapeutics Co., Ltd., priority 2023, dated 2025).
≈ marks a conversion by molar mass, not a printed value.

Assays:
Assay type in all cases: physicochemical
[1] = Storage stability of Crystal Form III (NMR)
Procedure: Add 15 mg of 2-{3-[3-amino-4-(7H-pyrrolo[2,3-d]pyrimidin-4-yl)-1H-pyrazol-1-yl]-1-(isopropylsulfonyl)azetidin-3-yl}acetonitrile to 3 mL of dioxane, heat to 40°C to dissolve and obtain a clear solution, filter, and allow the solution to crystallize by evaporation at 40°C to obtain Crystal Form III.

[2] = Long-term (24 months) stability study of crystal forms; details: for stability study result in words: 24 months
Procedure: In accordance with the stability study guidelines issued by the China's National Medical Products Administration (NMPA), stability studies were conducted on Crystal Forms I, IIa, and IIb. Samples were packaged in pharmaceutical low-density polyethylene bags, and long-term stability (24 months) was evaluated.

[3] = Crystal form conversion (room temperature; in the gel formulation, XRPD)
Procedure: Crystal Form IIa converts to Crystal Form IIb within 1 hour at room temperature (58.6% RH). During the preparation of topical gel formulation, Crystal Form I and Crystal Form IIb were respectively used as active pharmaceutical ingredients.

[4] = Solubility of crystal forms in 20% propylene glycol at 32°C
Procedure: (§1) Solubility Study of Various Crystal Forms
Solubility in 20% Propylene Glycol at 32°C (µg/mL)

[5] = Solubility of crystal forms at different pH (37°C, 24 h)
Procedure: as §1
Solubility Measurement Results (37°C, 24 h)

## CC(C)S(=O)(=O)N1CC(CC#N)(n2cc(-c3ncnc4[nH]ccc34)c(N)n2)C1 [Crystal Form III, 2-{3-[3-amino-4-(7H-pyrrolo[2,3-d]pyrimidin-4-yl)-1H-pyrazol-1-yl]-1-(isopropylsulfonyl)azetidin-3-yl}acetonitrile Crystal Form III]
[1]; after storage, NMR
  impurity formation: approximately 10%
[1]; in words
  stability: poor stability

## CC(C)S(=O)(=O)N1CC(CC#N)(n2cc(-c3ncnc4[nH]ccc34)c(N)n2)C1 [Crystal Form IIa, 2-{3-[3-amino-4-(7H-pyrrolo[2,3-d]pyrimidin-4-yl)-1H-pyrazol-1-yl]-1-(isopropylsulfonyl)azetidin-3-yl}acetonitrile Crystal Form IIa]
[2]; 0 month
  Appearance: Off-white powder
  Content: 99.8%
  Crystal Form: IIa
  Loss on Drying: 0.06%
  Related Substances Max Unknown Single Impurity: 0.06%
  Related Substances Total Impurity: 0.28%
[2]; 3 month
  Appearance: Off-white powder
  Crystal Form: IIb
  Loss on Drying: 0.18%
  Related Substances Max Unknown Single Impurity: 0.08%
  Related Substances Total Impurity: 0.28%
[2]; 3 month, 131040 min
  Content: 97.6%
[2]; 6 month
  Appearance: Off-white powder
  Crystal Form: IIb
  Loss on Drying: 0.19%
  Related Substances Max Unknown Single Impurity: 0.11%
  Related Substances Total Impurity: 0.27%
[2]; 6 month, 263520 min
  Content: 97.8%
[2]; 9 month
  Appearance: Off-white powder
  Crystal Form: IIb
  Loss on Drying: 0.24%
  Related Substances Max Unknown Single Impurity: 0.06%
  Related Substances Total Impurity: 0.24%
[2]; 9 month, 394560 min
  Content: 97.9%
[2]; 12 month
  Appearance: Off-white powder
  Crystal Form: IIb
  Loss on Drying: 0.20%
  Related Substances Max Unknown Single Impurity: 0.09%
  Related Substances Total Impurity: 0.22%
[2]; 12 month, 525600 min
  Content: 97.8%
[2]; 18 month
  Appearance: Off-white powder
  Crystal Form: IIb
  Loss on Drying: 0.16%
  Related Substances Max Unknown Single Impurity: 0.07%
  Related Substances Total Impurity: 0.26%
[2]; 18 month, 789120 min
  Content: 98.0%
[2]; 24 month
  Appearance: Off-white powder
  Crystal Form: IIb
  Loss on Drying: 0.25%
  Related Substances Max Unknown Single Impurity: 0.08%
  Related Substances Total Impurity: 0.29%
[2]; 24 month, 1.0512e+06 min
  Content: 97.8%
[2]
  stability study result in words: gradually absorbs moisture during storage and converts to Crystal Form IIb
[3]; room temperature (58.6% RH)
  time of conversion to Crystal Form IIb: ≤ 1 h

## CC(C)S(=O)(=O)N1CC(CC#N)(n2cc(-c3ncnc4[nH]ccc34)c(N)n2)C1 [Crystal Form IIb, 2-{3-[3-amino-4-(7H-pyrrolo[2,3-d]pyrimidin-4-yl)-1H-pyrazol-1-yl]-1-(isopropylsulfonyl)azetidin-3-yl}acetonitrile Crystal Form IIb]
[2]; 0 month
  Appearance: Off-white powder
  Content: 99.7%
  Crystal Form: IIb
  Loss on Drying: 0.36%
  Related Substances Max Unknown Single Impurity: 0.07%
  Related Substances Total Impurity: 0.38%
[2]; 3 month
  Appearance: Off-white powder
  Crystal Form: IIb
  Loss on Drying: 0.36%
  Related Substances Max Unknown Single Impurity: 0.08%
  Related Substances Total Impurity: 0.38%
[2]; 3 month, 131040 min
  Content: 99.7%
[2]; 6 month
  Appearance: Off-white powder
  Crystal Form: IIb
  Loss on Drying: 0.39%
  Related Substances Max Unknown Single Impurity: 0.08%
  Related Substances Total Impurity: 0.37%
[2]; 6 month, 263520 min
  Content: 99.6%
[2]; 9 month
  Appearance: Off-white powder
  Crystal Form: IIb
  Loss on Drying: 0.34%
  Related Substances Max Unknown Single Impurity: 0.08%
  Related Substances Total Impurity: 0.38%
[2]; 9 month, 394560 min
  Content: 99.5%
[2]; 12 month
  Appearance: Off-white powder
  Crystal Form: IIb
  Loss on Drying: 0.30%
  Related Substances Max Unknown Single Impurity: 0.07%
  Related Substances Total Impurity: 0.37%
[2]; 12 month, 525600 min
  Content: 99.6%
[2]; 18 month
  Appearance: Off-white powder
  Crystal Form: IIb
  Loss on Drying: 0.31%
  Related Substances Max Unknown Single Impurity: 0.07%
  Related Substances Total Impurity: 0.39%
[2]; 18 month, 789120 min
  Content: 99.6%
[2]; 24 month
  Appearance: Off-white powder
  Crystal Form: IIb
  Loss on Drying: 0.32%
  Related Substances Max Unknown Single Impurity: 0.08%
  Related Substances Total Impurity: 0.39%
[2]; 24 month, 1.0512e+06 min
  Content: 99.7%
[2]
  stability study result in words: good chemical stability
[3]; after 3 days, XRPD, FIG. 5 to FIG. 6
  crystal form of the active pharmaceutical ingredient in the final gel formulation: exclusively in form IIb
[4]; 10 min
  Solubility in 20% Propylene Glycol at 32°C: 6.1 µg/mL (≈ 15.2 µM)
[4]; 30 min
  Solubility in 20% Propylene Glycol at 32°C: 9.5 µg/mL (≈ 23.7 µM)
[4]; 1 h, 60 min
  Solubility in 20% Propylene Glycol at 32°C: 10.8 µg/mL (≈ 27 µM)
[4]; 2 h, 120 min
  Solubility in 20% Propylene Glycol at 32°C: 11.2 µg/mL (≈ 28 µM)
[4]; 18 h, 1080 min
  Solubility in 20% Propylene Glycol at 32°C: 13.3 µg/mL (≈ 33.2 µM)
[5]; pH 1.0, 1440 min
  Solubility Conc.: 149900 ng/mL (≈ 374 µM)
[5]; pH 2.0, 1440 min
  Solubility Conc.: 17400 ng/mL (≈ 43.4 µM)
[5]; pH 3.8, 1440 min
  Solubility Conc.: 900 ng/mL (≈ 2.25 µM)
[5]; pH 4.5, 1440 min
  Solubility Conc.: 700 ng/mL (≈ 1.75 µM)
[5]; pH 5.5, 1440 min
  Solubility Conc.: 500 ng/mL (≈ 1.25 µM)
[5]; pH 6.8, 1440 min
  Solubility Conc.: 600 ng/mL (≈ 1.5 µM)
[5]; pH 7.0, 1440 min
  Solubility Conc.: 800 ng/mL (≈ 2 µM)
[5]; pH 8.0, 1440 min
  Solubility Conc.: 700 ng/mL (≈ 1.75 µM)
